From ChEMBL document CHEMBL4190172 (Medchemcomm, 2016)
Activity calls are given as the source filed them. The rule behind the calls is not given here.

Tests used:
RAW264.7 [1] = experiment: Antiinflammatory activity in LPS/IFNgamma-stimulated mouse RAW264.7 cells assessed as decrease in iNOS mRNA level at 10 uM incubated for 20 hrs followed by LPS/IFNgamma stimulation for last 4 hrs by qRT-PCR analysis; assay type: functional, cell-based
[2] = molecular target: T1, Histone deacetylase 8 (Homo sapiens) (UniProt Q9BY41); experiment: Inhibition of recombinant human C-terminal His-tagged HDAC8 up to 50 uM using Boc-Lys-(Ac)-AMC as substrate after 1 hr by fluorescence assay
T1 sequence (whole entry): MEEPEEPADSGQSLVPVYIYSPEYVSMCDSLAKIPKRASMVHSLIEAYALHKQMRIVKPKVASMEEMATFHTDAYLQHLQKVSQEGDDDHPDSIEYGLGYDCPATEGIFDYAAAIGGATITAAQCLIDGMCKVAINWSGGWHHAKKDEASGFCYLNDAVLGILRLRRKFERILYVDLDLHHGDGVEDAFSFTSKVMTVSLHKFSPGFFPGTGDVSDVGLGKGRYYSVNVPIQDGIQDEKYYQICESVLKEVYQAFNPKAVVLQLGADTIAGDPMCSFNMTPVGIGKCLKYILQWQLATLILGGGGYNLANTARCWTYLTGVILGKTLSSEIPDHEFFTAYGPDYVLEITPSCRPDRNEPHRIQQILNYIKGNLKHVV

[3] = molecular target: Histone deacetylase 2 (Homo sapiens) (UniProt Q92769); experiment: Inhibition of recombinant human C-terminal His/flag-tagged HDAC2 at 2 to 16 uM using Boc-Lys-(Ac)-AMC as substrate preincubated for 1 hr followed by substrate addition in presence of Lys-C by fluorescence assay
[4] = molecular target: T2, Histone deacetylase 3/Nuclear receptor corepressor 2 (HDAC3/NCoR2) (Homo sapiens) (UniProt O15379+Q9Y618); experiment: Inhibition of recombinant human C-terminal His/flag-tagged HDAC3/NcoR2 at 2 to 16 uM using Boc-Lys-(Ac)-AMC as substrate preincubated for 1 hr followed by substrate addition in presence of Lys-C by fluorescence assay; assay type: protein-complex assay
[5] = molecular target: Histone deacetylase 1 (Homo sapiens) (UniProt Q13547); experiment: Inhibition of recombinant human C-terminal His/flag-tagged HDAC1 using Boc-Lys-(Ac)-AMC as substrate after 1 hr by fluorescence assay
RAW264.7 [6] = experiment: Cytotoxicity against LPS/IFNgamma-stimulated mouse RAW264.7 cells assessed as decrease in cell viability incubated for 16 hrs followed by LPS/IFNgamma stimulation for last 4 hrs by MTS assay; assay type: cell-based; conditions: raw264.7, 16 h
[7] = molecular target: T2, Histone deacetylase 3/Nuclear receptor corepressor 2 (HDAC3/NCoR2) (Homo sapiens); experiment: Inhibition of recombinant human C-terminal His/flag-tagged HDAC3/NcoR2 at 2 to 16 uM using Boc-Lys-(Ac)-AMC as substrate in presence of Lys-C by fluorescence assay; assay type: protein-complex assay; conditions: TDE = time-dependent effect
[8] = molecular target: Transcription factor p65 (Mus musculus) (UniProt Q04207); experiment: Inhibition of NF-kappaB p65 transcriptional activity in LPS/IFNgamma-stimulated mouse RAW264.7 cells at 10 uM incubated for 20 hrs followed by LPS/IFNgamma stimulation for last 4 hrs by SEAP reporter gene assay; assay type: cell-based
[9] = molecular target: Histone deacetylase 2 (Homo sapiens) (UniProt Q92769); experiment: Inhibition of recombinant human C-terminal His/flag-tagged HDAC2 at 2 to 16 uM using Boc-Lys-(Ac)-AMC as substrate in presence of Lys-C by fluorescence assay; conditions: TDE = time-dependent effect
[10] = molecular target: T2, Histone deacetylase 3/Nuclear receptor corepressor 2 (HDAC3/NCoR2) (Homo sapiens); experiment: Inhibition of recombinant human C-terminal His-tagged HDAC3/NcoR2 using Boc-Lys-(Ac)-AMC as substrate after 1 hr by fluorescence assay; assay type: protein-complex assay
[11] = molecular target: Histone deacetylase 1 (Homo sapiens) (UniProt Q13547); experiment: Inhibition of recombinant human C-terminal His/flag-tagged HDAC1 at 2 to 16 uM using Boc-Lys-(Ac)-AMC as substrate preincubated for 1 hr followed by substrate addition in presence of Lys-C by fluorescence assay
[12] = molecular target: Histone deacetylase 1 (Homo sapiens) (UniProt Q13547); experiment: Inhibition of recombinant human C-terminal His/flag-tagged HDAC1 at 2 to 16 uM using Boc-Lys-(Ac)-AMC as substrate in presence of Lys-C by fluorescence assay; conditions: TDE = time-dependent effect
[13] = molecular target: Transcription factor p65 (Mus musculus) (UniProt Q04207); experiment: Inhibition of NF-kappaB p65 nuclear translocation in LPS/IFNgamma-stimulated mouse RAW264.7 cells at 1 uM incubated for 20 hrs followed by LPS/IFNgamma addition measured after 1 hr by Hoechst 33342 staining based immunofluorescence microscopy; assay type: cell-based
[14] = molecular target: Histone deacetylase 2 (Homo sapiens) (UniProt Q92769); experiment: Inhibition of recombinant human C-terminal flag-tagged HDAC2 using Boc-Lys-(Ac)-AMC as substrate after 1 hr by fluorescence assay
[15] = molecular target: Transcription factor p65 (Mus musculus) (UniProt Q04207); experiment: Inhibition of NF-kappaB p65 transcriptional activity in LPS/IFNgamma-stimulated mouse RAW264.7 cells at 1 to 5 uM incubated for 20 hrs followed by LPS/IFNgamma stimulation for last 4 hrs by SEAP reporter gene assay; assay type: cell-based
RAW264.7 [16] = experiment: Antiinflammatory activity in LPS/IFNgamma-stimulated mouse RAW264.7 cells assessed as decrease in TNFalpha mRNA level incubated for 20 hrs followed by LPS/IFNgamma stimulation for last 4 hrs by qRT-PCR analysis; assay type: functional, cell-based
RAW264.7 [17] = experiment: Antiinflammatory activity in LPS/IFNgamma-stimulated mouse RAW264.7 cells assessed as decrease in IL-1beta mRNA level at 1 to 10 uM incubated for 20 hrs followed by LPS/IFNgamma stimulation for last 4 hrs by qRT-PCR analysis; assay type: functional, cell-based
RAW264.7 [18] = experiment: Antiinflammatory activity in LPS/IFNgamma-stimulated mouse RAW264.7 cells assessed as decrease in IL-6 mRNA level incubated for 20 hrs followed by LPS/IFNgamma stimulation for last 4 hrs by qRT-PCR analysis; assay type: functional, cell-based
RAW264.7 [19] = experiment: Antiinflammatory activity in LPS/IFNgamma-stimulated mouse RAW264.7 cells assessed as decrease in IL-12b mRNA level at 1 to 10 uM incubated for 20 hrs followed by LPS/IFNgamma stimulation for last 4 hrs by qRT-PCR analysis; assay type: functional, cell-based
RAW264.7 [20] = experiment: Antiinflammatory activity in LPS/IFNgamma-stimulated mouse RAW264.7 cells assessed as decrease in IL-6 mRNA level at 10 uM incubated for 20 hrs followed by LPS/IFNgamma stimulation for last 4 hrs by qRT-PCR analysis; assay type: functional; design: scale not given: the % may be the effect or the level left

Sequence of Histone deacetylase 2 (Homo sapiens) (Q92769 whole entry): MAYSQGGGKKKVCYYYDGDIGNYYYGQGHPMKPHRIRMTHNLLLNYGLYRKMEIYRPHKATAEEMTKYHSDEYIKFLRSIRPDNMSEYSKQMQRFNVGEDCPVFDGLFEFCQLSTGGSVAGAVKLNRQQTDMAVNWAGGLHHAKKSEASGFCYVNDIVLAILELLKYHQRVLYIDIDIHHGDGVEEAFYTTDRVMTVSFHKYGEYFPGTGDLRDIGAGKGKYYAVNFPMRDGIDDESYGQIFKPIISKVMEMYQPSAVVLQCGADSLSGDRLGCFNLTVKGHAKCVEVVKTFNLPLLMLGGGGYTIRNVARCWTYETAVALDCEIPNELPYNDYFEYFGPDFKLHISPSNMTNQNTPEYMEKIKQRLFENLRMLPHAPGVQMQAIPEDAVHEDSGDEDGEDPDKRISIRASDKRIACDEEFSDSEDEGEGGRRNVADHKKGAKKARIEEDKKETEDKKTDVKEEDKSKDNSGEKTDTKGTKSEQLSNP
Sequence of Histone deacetylase 1 (Homo sapiens) (Q13547 whole entry): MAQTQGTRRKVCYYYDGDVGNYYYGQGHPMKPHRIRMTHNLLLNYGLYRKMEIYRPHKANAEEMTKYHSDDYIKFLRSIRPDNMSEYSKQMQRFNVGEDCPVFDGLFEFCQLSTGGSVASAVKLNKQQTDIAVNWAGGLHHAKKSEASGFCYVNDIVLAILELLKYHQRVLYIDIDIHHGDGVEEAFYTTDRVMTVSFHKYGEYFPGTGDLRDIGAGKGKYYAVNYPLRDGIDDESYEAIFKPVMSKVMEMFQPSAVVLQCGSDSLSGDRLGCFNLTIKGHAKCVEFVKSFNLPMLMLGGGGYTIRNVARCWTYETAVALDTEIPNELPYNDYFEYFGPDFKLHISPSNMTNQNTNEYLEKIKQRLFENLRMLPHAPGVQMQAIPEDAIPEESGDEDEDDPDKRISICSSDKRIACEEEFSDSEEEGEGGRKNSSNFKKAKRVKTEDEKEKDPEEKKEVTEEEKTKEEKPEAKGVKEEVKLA
Sequence of Transcription factor p65 (Mus musculus) (Q04207 whole entry): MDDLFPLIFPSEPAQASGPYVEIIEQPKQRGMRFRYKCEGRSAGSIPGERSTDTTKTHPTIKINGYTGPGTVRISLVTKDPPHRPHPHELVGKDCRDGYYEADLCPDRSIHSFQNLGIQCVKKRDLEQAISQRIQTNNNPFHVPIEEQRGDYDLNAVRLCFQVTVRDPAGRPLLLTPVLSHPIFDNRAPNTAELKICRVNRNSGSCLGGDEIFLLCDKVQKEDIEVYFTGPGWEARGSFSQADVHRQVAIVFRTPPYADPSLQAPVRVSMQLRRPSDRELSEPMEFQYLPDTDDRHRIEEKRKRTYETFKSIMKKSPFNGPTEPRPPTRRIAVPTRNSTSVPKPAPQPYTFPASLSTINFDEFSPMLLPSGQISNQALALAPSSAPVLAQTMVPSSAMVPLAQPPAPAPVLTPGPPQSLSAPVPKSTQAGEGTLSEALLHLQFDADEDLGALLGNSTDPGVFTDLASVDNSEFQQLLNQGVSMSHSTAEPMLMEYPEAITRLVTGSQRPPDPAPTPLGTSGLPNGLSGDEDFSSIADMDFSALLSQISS

| Compound | Activity (RAW264.7 [1]) | inhibition [2] | inhibition [3] | inhibition [4] | inhibition [5] | Activity (RAW264.7 [6]) | inhibition [7] | inhibition [8] | inhibition [9] | inhibition [10] | inhibition [11] | inhibition [12] | inhibition [13] | inhibition [14] | inhibition [15] | Activity (RAW264.7 [16]) | Activity (RAW264.7 [17]) | Activity (RAW264.7 [18]) | Activity (RAW264.7 [19]) | Activity (RAW264.7 [20]) [%] |
| --- | --- | --- | --- | --- | --- | --- | --- | --- | --- | --- | --- | --- | --- | --- | --- | --- | --- | --- | --- | --- |
| CC(C)(C)OC(=O)Nc1ccccc1NC(=O)c1ccc(CNc2ccccc2/N=N/c2ccccc2)cc1 | inactive | inactive | Active | Active | Active | Non-Toxic | Tde | < 50% | Tde | Active | Active | Tde | Active | Active | – | – | – | – | – | – |
| Nc1ccccc1NC(=O)c1ccc(CNc2cccc(/N=N/c3ccccc3)c2)cc1 | inactive | – | Active | Active | Active | Non-Toxic | Tde | inactive | Tde | Active | Active | Tde | inactive | Active | inactive | – | – | – | – | – |
| Nc1ccccc1NC(=O)c1ccc(CNc2ccc(/N=N/c3ccccc3)cc2)cc1 | Active | – | Active | Active | Active | Non-Toxic | Tde | < 50% | Tde | Active | Active | Tde | Active | Active | – | Dose-dependent effect | Active | Dose-dependent effect | Active | 90 |
| Nc1ccccc1NC(=O)c1ccc(CNc2ccccc2/N=N/c2ccccc2)cc1 | – | inactive | – | – | – | – | – | – | – | – | – | – | – | – | – | – | – | – | – | – |
